# US12466839B2, “Allosteric AKT inhibitors for use in the treatment of Hereditary Hemorrhagic Telangiectasia” (VADERIS THERAPEUTICS AG, priority 2020, dated 2025)
# What was measured:
# [1] = target: p38α (Homo sapiens, UniProt Q16539); assay: Panel of 450 kinases and 10-point titration curve; type: biochemical
# [2] = test system: AVM formation in Eng-iKO mice; assay: Prevention of AVM formation in Eng-iKO mice (retinal vascular network); type: in vivo, mouse
# Description: The Eng Flox/flox; cdh5-CreERT2 were injected with tamoxifen (50 μg) at P2 to […] once at P3, P4, P5 and P6. The same volume of vehicle was injected serving as control animals. Mice were then euthanized at P7 and retinas processed for immunofluorescence staining as described (Lebrin et al., as above).
# The same volume of vehicle was injected serving as control animals. Mice were then euthanized at P7 and retinas processed for immunofluorescence staining as described (Lebrin et al., as above).
# For the retinal vascular network, quantification of the number of AV shunts per mouse was done manually. […] A custom own-lab made macro allowed automatic processing of the images, using the same processing and quantification parameters. Briefly, the brightness of the images was enhanced by modifying the pixel extreme values, which depends on the specific image histogram content. A Gaussian filter was applied to reduce the intensity in homogeneities. The filter order depended on the image resolution. Next, the threshold step was computed, based on a global threshold technique such as Otsu's method or Li's method, resulting in binary image. A median filter was then applied to eliminate potential local irregularities, which could cause false branching point detection. From the binary images, the vascular density was quantified (calculated as the ratio of pixels associated with the vessels divided by the total number of pixels in the image). For the other parameters, a skeleton of the images was first computed using ImageJ, then the total vascular length was quantified using the Measure Skeleton Length plug-in from ImageJ. The number of branch points was extracted from the Analyze Skeleton plug-in of ImageJ. All results were transferred to Microsoft Office Excel software and automatically rearranged using a lab custom-made program. As all images generated at each step of the processing were saved, a visual control was made to ensure that there were no aberrant results.
# Statistical analysis was performed with Prism 7 software (GraphPad). For most of the experiments, 1-way ANOVA was used for multiple comparisons. Results are expressed as mean±SEM. For post hoc pairwise, the Dunnett's test was used. A value of *P<0.05, **P<0.01, ***P<0.001 or ****P<0.0001 denotes statistical significance. An in-group variation of around 15% in parameters related to blood vessel architecture changes has been previously observed by the inventors, therefore a difference between controls and mutant mice of around 20-30% was anticipated. It was therefore expected that a group of 8 mice per condition would reveal statistical differences.
# Eyes were fixed in 4% paraformaldehyde (PFA) in PBS at room temperature for 10 min, retinas were dissected, post-fixed in 4% PFA in PBS at 4° C. overnight then processed for immunostaining. Retinas were permeabilized in PBS, 1% BSA and 0.5% Triton X-100 at 4° C. overnight, rinsed in PBS, washed twice in PBlec (PBS, pH 6.8, 1% Triton-X-100, 0.1 mM CaCl2, 0.1 mM MgCl2, 0.1 mM MnCl2), and then incubated in biotinylated Griffonia simplicifolia lectin (isolectin B4) (B-1205, Vector Laboratories, 1:50) in PBlec at 4° C. overnight. After 5 washes in PBS, samples were incubated with streptavidin Cy-3 (PA43001, Sigma-Aldrich, 1:100) and with a-SMA (clone 1A4) (F3777, Sigma-Aldrich) conjugated with FITC diluted in PBS, 0.5% BSA, and 0.25% X-100 at 4° C. for 2 h. After washing, flat whole-mount retinas were mounted in DAKO medium (S3023, Dako). Complete high-resolution 3-dimensional rendering of whole-mount retinas was acquired using Laser Scanning Microscope SP5 or SP8 (Leica).
# [3] = target: T1, CCR2B (Homo sapiens, UniProt P41597); assay: Millipore Drug Discovery Safety and Liability Panel; type: cell-based
# T1 construct: purchased Millipore
# [4] = target: T2, CGRP1 (Homo sapiens, UniProt O60894+Q16602); assay: as above; type: cell-based
# T2 construct: purchased Millipore
# [5] = target: T3, 5-HT2C (Homo sapiens, UniProt P28335); assay: as above; type: cell-based
# T3 construct: purchased Millipore
# [6] = target: T4, PK1 (Homo sapiens, UniProt Q8TCW9); assay: as above; type: cell-based
# T4 construct: Millipore
# [7] = target: T5, D2 (Homo sapiens, UniProt P14416); assay: as above; type: cell-based
# T5 construct: purchased Millipore
# [8] = target: T6, CB2 (Homo sapiens, UniProt P34972); assay: as above; type: cell-based
# T6 construct: purchased Millipore
# [9] = target: KCNQ1 (Homo sapiens, UniProt P51787); assay: Cardiac ion channel profile; type: cell-based
# [10] = read-out: ANTAGONIST mean % inhibition
# T2 sequence (Q16602 23-461): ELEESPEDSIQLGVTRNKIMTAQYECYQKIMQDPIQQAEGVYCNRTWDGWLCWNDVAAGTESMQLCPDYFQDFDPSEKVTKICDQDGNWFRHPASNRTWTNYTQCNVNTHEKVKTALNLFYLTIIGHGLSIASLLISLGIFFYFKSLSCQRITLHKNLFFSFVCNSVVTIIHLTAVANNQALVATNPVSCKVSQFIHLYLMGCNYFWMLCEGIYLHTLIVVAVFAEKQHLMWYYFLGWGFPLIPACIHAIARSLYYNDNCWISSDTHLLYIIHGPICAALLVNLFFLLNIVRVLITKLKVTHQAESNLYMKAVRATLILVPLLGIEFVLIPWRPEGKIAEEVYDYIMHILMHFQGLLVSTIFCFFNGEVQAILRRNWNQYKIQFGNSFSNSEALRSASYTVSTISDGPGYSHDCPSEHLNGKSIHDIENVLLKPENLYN
# T2 sequence (O60894 27-148 partner): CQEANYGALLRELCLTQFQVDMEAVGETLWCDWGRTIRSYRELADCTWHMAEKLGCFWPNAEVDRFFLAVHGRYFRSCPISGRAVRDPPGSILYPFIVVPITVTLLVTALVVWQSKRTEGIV
# T4 sequence (Q8TCW9 whole entry): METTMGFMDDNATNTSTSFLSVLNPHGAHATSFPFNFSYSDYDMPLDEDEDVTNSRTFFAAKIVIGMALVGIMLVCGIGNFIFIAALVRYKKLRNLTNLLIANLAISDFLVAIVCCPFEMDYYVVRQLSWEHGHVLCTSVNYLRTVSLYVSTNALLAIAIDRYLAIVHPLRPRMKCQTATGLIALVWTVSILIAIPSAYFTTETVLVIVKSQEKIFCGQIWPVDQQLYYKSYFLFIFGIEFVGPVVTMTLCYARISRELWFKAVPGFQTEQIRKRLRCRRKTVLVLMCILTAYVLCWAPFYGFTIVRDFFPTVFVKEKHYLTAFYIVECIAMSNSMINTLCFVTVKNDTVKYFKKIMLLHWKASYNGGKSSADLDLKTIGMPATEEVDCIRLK
# T3 sequence (P28335 33-458, species assumed): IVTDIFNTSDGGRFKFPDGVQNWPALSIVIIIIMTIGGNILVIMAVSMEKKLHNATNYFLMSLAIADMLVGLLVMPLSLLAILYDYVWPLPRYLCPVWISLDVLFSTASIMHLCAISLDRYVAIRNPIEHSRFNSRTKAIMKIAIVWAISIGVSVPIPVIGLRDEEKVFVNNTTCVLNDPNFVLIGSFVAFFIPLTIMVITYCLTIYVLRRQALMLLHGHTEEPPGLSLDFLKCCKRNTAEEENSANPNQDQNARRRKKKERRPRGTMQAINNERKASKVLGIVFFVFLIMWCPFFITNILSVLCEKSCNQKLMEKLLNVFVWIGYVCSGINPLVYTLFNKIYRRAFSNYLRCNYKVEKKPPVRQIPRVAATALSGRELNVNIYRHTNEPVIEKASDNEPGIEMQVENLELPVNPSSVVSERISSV
# T1 sequence (P41597 1-360 isoform P41597-2): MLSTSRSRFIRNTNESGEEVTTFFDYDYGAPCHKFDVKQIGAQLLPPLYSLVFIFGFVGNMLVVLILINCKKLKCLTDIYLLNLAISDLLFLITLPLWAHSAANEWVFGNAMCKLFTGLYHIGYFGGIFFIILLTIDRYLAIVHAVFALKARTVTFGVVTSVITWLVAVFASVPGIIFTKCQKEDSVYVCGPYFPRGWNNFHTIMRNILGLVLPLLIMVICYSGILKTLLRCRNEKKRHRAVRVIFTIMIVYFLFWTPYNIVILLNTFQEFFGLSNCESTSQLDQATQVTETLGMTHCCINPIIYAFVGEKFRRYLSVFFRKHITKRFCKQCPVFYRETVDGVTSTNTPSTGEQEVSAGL
# p38α, sequence (Q16539 whole entry): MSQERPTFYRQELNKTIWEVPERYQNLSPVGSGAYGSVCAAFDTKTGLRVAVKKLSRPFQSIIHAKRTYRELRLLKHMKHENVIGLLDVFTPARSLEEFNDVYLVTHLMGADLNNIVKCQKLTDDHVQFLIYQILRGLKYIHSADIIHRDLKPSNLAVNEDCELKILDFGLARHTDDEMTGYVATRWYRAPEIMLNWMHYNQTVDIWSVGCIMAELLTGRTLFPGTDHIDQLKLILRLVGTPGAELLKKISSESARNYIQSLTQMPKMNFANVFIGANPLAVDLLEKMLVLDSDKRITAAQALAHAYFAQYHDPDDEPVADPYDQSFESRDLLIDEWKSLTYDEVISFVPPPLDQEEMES
# T5 sequence (P14416 whole entry): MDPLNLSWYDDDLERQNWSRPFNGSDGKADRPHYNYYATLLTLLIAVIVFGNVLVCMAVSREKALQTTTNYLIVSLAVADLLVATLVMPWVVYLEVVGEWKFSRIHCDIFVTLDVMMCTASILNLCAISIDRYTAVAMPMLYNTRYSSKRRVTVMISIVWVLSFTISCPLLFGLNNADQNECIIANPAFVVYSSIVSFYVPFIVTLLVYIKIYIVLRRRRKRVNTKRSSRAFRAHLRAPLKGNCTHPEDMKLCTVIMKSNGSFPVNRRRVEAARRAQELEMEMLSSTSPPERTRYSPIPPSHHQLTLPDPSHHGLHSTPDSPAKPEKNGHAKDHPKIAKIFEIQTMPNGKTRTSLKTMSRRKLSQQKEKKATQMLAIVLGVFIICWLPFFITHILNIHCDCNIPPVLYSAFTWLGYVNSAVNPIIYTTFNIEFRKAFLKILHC
# T6 sequence (P34972 whole entry): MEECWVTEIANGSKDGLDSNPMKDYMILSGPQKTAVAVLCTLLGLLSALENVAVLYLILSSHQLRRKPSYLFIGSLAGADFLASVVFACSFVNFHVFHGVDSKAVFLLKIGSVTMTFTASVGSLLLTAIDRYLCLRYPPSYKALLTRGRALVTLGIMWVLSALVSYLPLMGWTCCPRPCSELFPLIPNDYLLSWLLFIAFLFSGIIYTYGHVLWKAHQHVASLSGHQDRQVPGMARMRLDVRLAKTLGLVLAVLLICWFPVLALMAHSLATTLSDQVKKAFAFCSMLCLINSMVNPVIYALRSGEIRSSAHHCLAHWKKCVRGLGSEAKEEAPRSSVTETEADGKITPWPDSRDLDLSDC
smiles,measurement,setting,value
"CCN1C(=O)COc2nc(-c3ccc(C4(N)CC(O)C4)cc3)c(-c3ccccc3)cc21.O=C(O)C(O)C(O)C(=O)O [VAD044, 6-(4-(1-amino-3-hydroxycyclobutyl)phenyl)-1-ethyl-7-phenyl-1H-pyrido[2,3-b][1,4]oxazin-2(3H)-one L-tartrate]",inhibition at 10 µM,[1]; 10 μM,84%
same,IC50,[1]; 10-point titration curve,> 10 µM
same,prevention of AVM shunt formation,[2]; 2.5 mg·kg−1,fully prevent AVM shunt formation
same,density of the retinal vascular network,[2]; Eng-iKO mice,normalize the density
same,number of branch points of the Eng-iKO vascular network,[2]; Eng-iKO mice,slightly reducing
same,radial expansion of the Eng-iKO vascular network,[2]; Eng-iKO mice,slightly reducing
same,prevention of AV shunt formation,"[2]; Eng-iKO mice, 1.25 mg·kg-1",not to be effective
same,prevention of AV shunt formation,"[2]; Eng-iKO mice, 2.5 mg·kg-1 and above, at P3 and P5",efficiently prevented AV shunt formation
same,minimal effective dose,[2]; HHT1 (Eng-iKO) mouse model,2.5 mg/kg
same,activation at 10 µM,"[3]; CCR2B, 10 μM, read-out: AGONIST mean % increase in activity",-0.1%
same,inhibition at 10 µM,[3]; [10],9.1%
same,activation at 10 µM,"[4]; CGRP1, 10 μM, read-out: AGONIST mean % increase in activity",-0.1%
same,inhibition at 10 µM,[4]; [10],-7.9%
same,activation at 10 µM,[5]; read-out: AGONIST mean % increase in activity,0.8%
same,inhibition at 10 µM,[5]; [10],21.9%
same,inhibition at 10 µM,"[6]; PK-1, read-out: ANTAGONIST mean % inhibition",-2.1%
same,activation at 10 µM,"[6]; PK-1, PK1, 10 μM, read-out: AGONIST mean % increase in activity",0%
same,activation at 10 µM,"[7]; D2, 10 μM, read-out: AGONIST mean % increase in activity",-1.1%
same,inhibition at 10 µM,[7]; [10],-0.2%
same,activation at 10 µM,"[8]; CB2, 10 μM, read-out: AGONIST mean % increase in activity",-0.9%
same,inhibition at 10 µM,[8]; [10],10.6%
same,inhibition at 10 µM,[9],< 25%
